{"source": "patent US20260103679A1", "about": "“COMPOSITIONS COMPRISING REGULATORY T CELLS AND METHODS OF USING THE SAME” (Cellenkos, Inc., priority 2021, published 2026)", "tested_on": "xenogeneic mouse graft versus host disease (GVHD) model", "conditions": "in vivo", "method": "FIG. 33 depicts a schematic for treatment of a xenogeneic mouse graft versus host disease (GVHD) model with a ruxolitinib and activated Treg cells regimen. PBMC=peripheral blood mononuclear cells.\nA xenogeneic mouse graft versus host disease (GVHD) model was treated with a ruxolitinib and activated CB Treg cells regimen, as depicted in FIG. 33. NSG mice underwent sublethal irradiation on day −1 followed by injection of 1×10^7 donor peripheral blood (PB) mononuclear cells (MNCs) on day 0. Oral ruxolitinib at 1 mg daily was fed continuously to the mice in the presence or absence of 1×10^7 CB Treg cells, tagged with CellTrace™ Violet dye (ThermoFisher), administered on days +4, +7, +11, +18. Mice were followed every other day for weight, GVHD score and survival. Serial blood draws were performed to analyze for cell compartment and cytokine assays.", "data": [{"smiles": "N#CC[C@H](C1CCCC1)n1cc(-c2ncnc3[nH]ccc23)cn1", "note": "[ruxolitinib]", "values": [{"measurement": "CB Treg persistence", "result": "improved"}]}]}
